In brackets after ≈: the same amount, converted by molar mass. Activity calls are given as the source filed them. The calls are words filed in the database; no cut-off is given here.
What was measured:
RAW264.7 [1] = assay: Cytotoxicity activity mouse RAW264.7 cells assessed as reduction in cell viability at upto 100 uM incubated for 48 hrs by CCK-8 assay; type: toxicity, cell-based; details: raw264.7, 48 h
Staphylococcus aureus = assay: Antibacterial activity against methicillin-resistant Staphylococcus aureus clinical isolate assessed as bacterial growth inhibition by CLSI protocol based broth microdilution method; type: functional
RAW264.7 [2] = assay: Immunostimulatory activity in mouse RAW264.7 cells assessed as increase in TNF-alpha production level at 1 uM incubated for 24 hrs by ELISA; type: functional, cell-based
Enterococcus faecalis = assay: Antibacterial activity against vancomycin-resistant Enterococcus faecalis clinical isolate assessed as bacterial growth inhibition by CLSI protocol based broth microdilution method; type: functional
RAW264.7 [3] = assay: Immunostimulatory activity in mouse RAW264.7 cells assessed as increase in cell viability at 1 uM incubated for 48 hrs by CCK-8 assay; type: functional
Escherichia coli [4] = assay: Antibacterial activity against Escherichia coli OP50 assessed as bacterial growth inhibition at 20 uM by CLSI protocol based broth microdilution method; type: functional; details: read-out: GI
RAW264.7 [5] = assay: Immunostimulatory activity in mouse RAW264.7 cells assessed as increase in NO production at 1 uM incubated for 24 hrs by Griess method; type: functional, cell-based
RAW264.7 [6] = assay: Immunostimulatory activity in mouse RAW264.7 cells assessed as increase in IL-6 production level at 1 uM incubated for 24 hrs by ELISA; type: functional, cell-based
Escherichia coli [7] = assay: Antibacterial activity against enteropathogenic Escherichia coli […] assessed as bacterial growth inhibition at 20 uM by CLSI protocol based broth microdilution method; type: functional; details: read-out: GI
RAW264.7 [8] = assay: Immunostimulatory activity in mouse RAW264.7 cells assessed as increase in cell viability at 0.078 to 10 uM incubated for 48 hrs by CCK-8 assay; type: functional, cell-based; details: dose 0.078-10 µM
RAW264.7 [9] = assay: Immunostimulatory activity in mouse RAW264.7 cells assessed as increase in ROS production by measuring fluorescence intensity at 1 uM incubated for 24 hrs by DCFH-DA staining based fluorescence microplate reader assay; type: functional, cell-based
Pseudomonas aeruginosa = assay: Antibacterial activity against Pseudomonas aeruginosa PA01 assessed as bacterial growth inhibition at 20 uM by CLSI protocol based broth microdilution method; type: functional; details: read-out: GI

| Structure (SMILES) | Activity (RAW264.7 [1]) | MIC (Staphylococcus aureus) | Activity (RAW264.7 [2]) | MIC (Enterococcus faecalis) | Activity (RAW264.7 [3]) | inhibition of growth at 20 µM (Escherichia coli [4]) | Activity (RAW264.7 [5]) | Activity (RAW264.7 [6]) | inhibition of growth at 20 µM (Escherichia coli [7]) | Activity (RAW264.7 [8]) | Activity (RAW264.7 [9]) | inhibition of growth at 20 µM (Pseudomonas aeruginosa) |
| --- | --- | --- | --- | --- | --- | --- | --- | --- | --- | --- | --- | --- |
| C=C[C@]1(C)C[C@@H](O)[C@@]2(C)C3CCC[C@@]3(CC[C@H]2C)[C@@H](C)C1 (stereo partly drawn) | Non-Toxic | 12.5 µM (≈ 3.63 µg/mL) | Active | 20 µM (≈ 5.81 µg/mL) | inactive | – | – | – | – | – | – | – |
| C[C@@H]1CC[C@@]23CCC(=O)C2[C@]1(C)[C@H](OC(=O)CO)C[C@@](C)([C@H](O)CO)[C@@H](O)[C@@H]3C (stereo partly drawn) | Non-Toxic | > 20 µM | Active | 20 µM (≈ 8.25 µg/mL) | inactive | 50% | Active | – | – | – | – | – |
| C=C[C@]1(C)C[C@@H](OC(=O)CO)[C@@]2(C)C3C(=O)[C@H](O)CC3(CC[C@H]2C)[C@@H](C)[C@@H]1O (single isomer, unassigned) | Non-Toxic | 3.12 µM (≈ 1.23 µg/mL) | Active | 1.25 µM (≈ 0.493 µg/mL) | inactive | 70% | Active | Active | 52% | – | – | – |
| C=C[C@@]1(C)C[C@H](C)[C@]23CCC(=O)C2[C@@](C)([C@H](C)CC3)[C@H](OC(C)=O)C1 (stereo partly drawn) | Non-Toxic | 12.5 µM (≈ 4.33 µg/mL) | – | 1.25 µM (≈ 0.433 µg/mL) | inactive | – | – | – | – | – | – | – |
| C=C[C@]1(C)C[C@@H](O)[C@@]2(C)C3[C@H](O)CC[C@@]3(CC[C@H]2C)[C@@H](C)C1 (stereo partly drawn) | Non-Toxic | 12.5 µM (≈ 3.83 µg/mL) | – | 20 µM (≈ 6.13 µg/mL) | inactive | – | – | – | – | – | – | – |
| CC(=O)OC[C@@H](O)[C@]1(C)C[C@@H](OC(=O)CO)[C@@]2(C)C3C(=O)CC[C@@]3(CC[C@H]2C)[C@@H](C)[C@@H]1O (stereo partly drawn) | Non-Toxic | > 20 µM | Active | > 20 µM | inactive | 21% | – | Active | – | – | – | – |
| C=C[C@]1(C)C[C@@H](OC(C)=O)[C@@]2(C)C3C(=O)CC[C@@]3(CC[C@H]2C)[C@@H](C)[C@@H]1O (stereo partly drawn) | Non-Toxic | 0.39 µM (≈ 0.141 µg/mL) | – | 2.5 µM (≈ 0.906 µg/mL) | 60% | 61% | – | – | – | Dose-Dependent Effect | Active | 51% |
| C=C[C@]1(C)C[C@@H](OC(=O)CO[C@H]2O[C@H](CO)[C@@H](O)[C@H](O)[C@H]2O)[C@@]2(C)C3C(=O)CCC3(CC[C@H]2C)[C@@H](C)[C@@H]1O (single isomer, unassigned) | Non-Toxic | > 20 µM | Active | > 20 µM | inactive | 21% | Active | – | – | – | – | – |
| C=C[C@]1(C)C[C@@H](O)[C@@]2(C)C3C(=O)CC[C@@]3(CC[C@H]2C)[C@@H](C)[C@@H]1O (stereo partly drawn) | Non-Toxic | 6.25 µM (≈ 2 µg/mL) | – | 5 µM (≈ 1.6 µg/mL) | inactive | – | – | – | – | – | Active | – |
| C=C[C@]1(C)C[C@@H](O)[C@@]2(C)C3=CC(=O)C[C@@]3(CC[C@H]2C)[C@@H](C)[C@@H]1O | Non-Toxic | > 20 µM | Active | > 20 µM | inactive | – | – | Active | – | – | – | – |
| C=C[C@]1(C)C[C@@H](OC(=O)CO)[C@@]2(C)C3C(=O)CC[C@@]3(CC[C@H]2C)[C@@H](C)[C@@H]1O (stereo partly drawn) | Non-Toxic | 0.09 µM (≈ 0.0341 µg/mL) | – | 0.31 µM (≈ 0.117 µg/mL) | 60% | 71% | – | – | – | Dose-Dependent Effect | – | 40% |
| C=C[C@]1(C)C[C@@H](OC(C)=O)[C@@]2(C)C3=CC(=O)C[C@@]3([C@H](O)C[C@H]2C)[C@@H](C)[C@@H]1O | Non-Toxic | > 20 µM | Active | 5 µM (≈ 1.88 µg/mL) | inactive | – | – | Active | – | – | – | – |
| C=C[C@]1(C)C[C@@H](OC(C)=O)[C@@]2(C)C3[C@H](O)CC[C@@]3(CC[C@H]2C)[C@@H](C)[C@@H]1O (stereo partly drawn) | Non-Toxic | 6.25 µM (≈ 2.28 µg/mL) | Active | 0.625 µM (≈ 0.228 µg/mL) | inactive | 20% | – | – | – | – | – | 18% |
| C=C[C@]1(C)C[C@@H](O)[C@@]2(C)C3[C@H](O)CC[C@@]3(CC[C@H]2C)[C@@H](C)[C@@H]1O (stereo partly drawn) | Non-Toxic | 12.5 µM (≈ 4.03 µg/mL) | – | 20 µM (≈ 6.45 µg/mL) | inactive | – | – | – | – | – | – | – |
| C=C[C@]1(C)C[C@@H](OC(=O)CO)[C@@]2(C)C3=CC(=O)C[C@@]3(CC[C@H]2C)[C@@H](C)[C@@H]1O | Non-Toxic | > 20 µM | Active | 5 µM (≈ 1.88 µg/mL) | inactive | – | – | – | – | – | – | – |
| C=C[C@@]1(C)C[C@H](C)[C@]23CC[C@@H](O)C2[C@@](C)([C@H](C)CC3)[C@H](OC(C)=O)C1 (stereo partly drawn) | Non-Toxic | > 20 µM | Active | 2.5 µM (≈ 0.871 µg/mL) | inactive | – | – | – | – | – | – | – |
| C[C@@H]1CC[C@@]23CCC(=O)C2[C@]1(C)[C@H](OC(=O)CO)C[C@@]1(C)[C@H](O)CO[C@H]1[C@@H]3C (stereo partly drawn) | Non-Toxic | > 20 µM | Active | 20 µM (≈ 7.89 µg/mL) | inactive | 34% | Active | – | – | – | – | – |
